This is an account of results in PMC8213057, “Targeting ALK2: An Open Science Approach to Developing Therapeutics for the Treatment of Diffuse Intrinsic Pontine Glioma” (Journal of Medicinal Chemistry, 2020).

For one experiment, the target named is T1, Aurora C (Homo sapiens, UniProt Q9UQB9).
T1 sequence (Q9UQB9 1-309): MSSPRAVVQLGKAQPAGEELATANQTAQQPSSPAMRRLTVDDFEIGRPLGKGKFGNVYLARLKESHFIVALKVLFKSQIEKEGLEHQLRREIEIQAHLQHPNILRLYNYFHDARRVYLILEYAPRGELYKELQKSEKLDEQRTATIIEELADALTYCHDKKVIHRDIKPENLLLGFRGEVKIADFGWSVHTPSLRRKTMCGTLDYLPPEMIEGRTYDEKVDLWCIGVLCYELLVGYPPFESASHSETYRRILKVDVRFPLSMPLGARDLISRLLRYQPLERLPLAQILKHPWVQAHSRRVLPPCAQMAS
The experiment in a line: biochemical. To be noted: read-out: % enzyme activity, 1 μM; Run 1, Run 2.

For the next experiment, the target named is PYK2 (Homo sapiens, UniProt Q14289). To be noted: 1 μM; Run 1, Run 2.
Sequence of PYK2 (Q14289 whole entry): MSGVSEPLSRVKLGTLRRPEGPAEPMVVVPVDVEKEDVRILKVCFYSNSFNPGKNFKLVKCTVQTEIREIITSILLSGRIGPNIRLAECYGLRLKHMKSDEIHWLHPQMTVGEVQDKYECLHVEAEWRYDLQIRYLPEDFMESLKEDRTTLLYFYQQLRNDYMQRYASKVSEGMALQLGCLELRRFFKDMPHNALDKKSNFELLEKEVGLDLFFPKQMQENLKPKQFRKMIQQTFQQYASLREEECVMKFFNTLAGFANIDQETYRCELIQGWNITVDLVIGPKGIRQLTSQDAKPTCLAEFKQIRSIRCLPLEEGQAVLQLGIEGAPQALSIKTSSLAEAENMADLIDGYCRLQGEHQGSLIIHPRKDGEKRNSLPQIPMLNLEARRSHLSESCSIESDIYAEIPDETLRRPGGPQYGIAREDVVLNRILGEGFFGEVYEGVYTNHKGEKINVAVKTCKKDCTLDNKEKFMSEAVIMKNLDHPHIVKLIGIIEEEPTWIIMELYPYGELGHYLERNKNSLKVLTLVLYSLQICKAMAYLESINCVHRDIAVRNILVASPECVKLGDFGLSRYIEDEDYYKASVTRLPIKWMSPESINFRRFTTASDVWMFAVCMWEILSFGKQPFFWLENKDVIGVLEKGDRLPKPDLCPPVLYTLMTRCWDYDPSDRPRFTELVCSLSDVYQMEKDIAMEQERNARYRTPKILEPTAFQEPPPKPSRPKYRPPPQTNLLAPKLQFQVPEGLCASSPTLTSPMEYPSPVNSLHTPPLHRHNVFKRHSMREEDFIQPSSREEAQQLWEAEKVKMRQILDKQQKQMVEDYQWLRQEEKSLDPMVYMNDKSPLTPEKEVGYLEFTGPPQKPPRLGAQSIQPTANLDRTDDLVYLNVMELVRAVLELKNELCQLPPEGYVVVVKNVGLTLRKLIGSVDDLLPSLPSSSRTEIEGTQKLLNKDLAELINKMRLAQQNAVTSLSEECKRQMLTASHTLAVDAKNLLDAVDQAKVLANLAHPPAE
Another experiment has as its target PKCb2 (Homo sapiens, UniProt P05771). Briefly: biochemical. To be noted: read-out: % enzyme activity, 1 μM; Run 1, Run 2.
For the next experiment, the target named is PEAK1 (Homo sapiens, UniProt Q9H792). To be noted: 1 μM; Run 1, Run 2.
Sequence of PEAK1 (Q9H792 whole entry): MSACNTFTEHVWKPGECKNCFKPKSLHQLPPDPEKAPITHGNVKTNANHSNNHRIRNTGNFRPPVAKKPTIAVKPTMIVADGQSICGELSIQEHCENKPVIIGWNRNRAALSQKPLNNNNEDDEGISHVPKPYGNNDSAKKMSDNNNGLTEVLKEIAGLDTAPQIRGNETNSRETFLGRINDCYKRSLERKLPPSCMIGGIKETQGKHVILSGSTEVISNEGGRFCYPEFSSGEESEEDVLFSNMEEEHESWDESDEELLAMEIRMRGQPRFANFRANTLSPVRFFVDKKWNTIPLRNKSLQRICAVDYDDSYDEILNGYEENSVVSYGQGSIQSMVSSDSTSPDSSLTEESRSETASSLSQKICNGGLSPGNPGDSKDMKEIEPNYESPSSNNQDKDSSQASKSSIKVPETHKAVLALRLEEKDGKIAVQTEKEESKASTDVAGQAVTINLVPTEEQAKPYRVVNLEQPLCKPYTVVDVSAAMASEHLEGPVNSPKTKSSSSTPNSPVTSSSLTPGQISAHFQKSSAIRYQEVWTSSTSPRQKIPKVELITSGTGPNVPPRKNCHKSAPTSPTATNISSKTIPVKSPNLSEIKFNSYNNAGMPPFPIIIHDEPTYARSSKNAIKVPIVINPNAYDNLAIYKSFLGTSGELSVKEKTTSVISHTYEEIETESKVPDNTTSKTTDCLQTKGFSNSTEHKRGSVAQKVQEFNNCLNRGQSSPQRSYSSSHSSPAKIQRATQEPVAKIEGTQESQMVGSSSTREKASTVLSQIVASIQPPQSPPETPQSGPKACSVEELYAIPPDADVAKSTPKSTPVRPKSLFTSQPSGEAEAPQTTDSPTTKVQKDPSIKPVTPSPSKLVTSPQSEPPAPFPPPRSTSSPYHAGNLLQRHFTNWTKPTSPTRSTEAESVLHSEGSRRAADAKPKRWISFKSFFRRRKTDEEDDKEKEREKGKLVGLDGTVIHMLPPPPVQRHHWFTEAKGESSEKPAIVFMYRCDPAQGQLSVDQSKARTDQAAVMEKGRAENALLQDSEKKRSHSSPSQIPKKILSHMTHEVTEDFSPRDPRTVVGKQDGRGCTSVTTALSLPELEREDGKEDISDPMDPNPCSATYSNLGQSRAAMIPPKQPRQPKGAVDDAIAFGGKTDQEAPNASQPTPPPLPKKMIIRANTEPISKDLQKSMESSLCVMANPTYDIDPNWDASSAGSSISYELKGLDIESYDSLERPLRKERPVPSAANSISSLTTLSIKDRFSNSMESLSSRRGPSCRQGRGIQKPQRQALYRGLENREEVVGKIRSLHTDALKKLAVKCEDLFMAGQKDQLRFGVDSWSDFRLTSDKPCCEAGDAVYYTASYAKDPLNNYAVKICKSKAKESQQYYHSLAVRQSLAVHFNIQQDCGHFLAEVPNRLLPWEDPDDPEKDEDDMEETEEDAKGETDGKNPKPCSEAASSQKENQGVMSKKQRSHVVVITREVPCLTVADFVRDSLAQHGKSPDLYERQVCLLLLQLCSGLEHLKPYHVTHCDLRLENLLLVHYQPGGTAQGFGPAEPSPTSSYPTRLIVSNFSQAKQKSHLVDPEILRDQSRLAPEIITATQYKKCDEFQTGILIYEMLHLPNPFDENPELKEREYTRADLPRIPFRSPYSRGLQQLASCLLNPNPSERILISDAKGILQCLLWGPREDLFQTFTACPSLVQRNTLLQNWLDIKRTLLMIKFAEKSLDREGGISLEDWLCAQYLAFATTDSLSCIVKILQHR
A further experiment deals with T2, ASK1/MAP3K5 (Homo sapiens, UniProt Q99683).
T2 sequence (Q99683 1-1374): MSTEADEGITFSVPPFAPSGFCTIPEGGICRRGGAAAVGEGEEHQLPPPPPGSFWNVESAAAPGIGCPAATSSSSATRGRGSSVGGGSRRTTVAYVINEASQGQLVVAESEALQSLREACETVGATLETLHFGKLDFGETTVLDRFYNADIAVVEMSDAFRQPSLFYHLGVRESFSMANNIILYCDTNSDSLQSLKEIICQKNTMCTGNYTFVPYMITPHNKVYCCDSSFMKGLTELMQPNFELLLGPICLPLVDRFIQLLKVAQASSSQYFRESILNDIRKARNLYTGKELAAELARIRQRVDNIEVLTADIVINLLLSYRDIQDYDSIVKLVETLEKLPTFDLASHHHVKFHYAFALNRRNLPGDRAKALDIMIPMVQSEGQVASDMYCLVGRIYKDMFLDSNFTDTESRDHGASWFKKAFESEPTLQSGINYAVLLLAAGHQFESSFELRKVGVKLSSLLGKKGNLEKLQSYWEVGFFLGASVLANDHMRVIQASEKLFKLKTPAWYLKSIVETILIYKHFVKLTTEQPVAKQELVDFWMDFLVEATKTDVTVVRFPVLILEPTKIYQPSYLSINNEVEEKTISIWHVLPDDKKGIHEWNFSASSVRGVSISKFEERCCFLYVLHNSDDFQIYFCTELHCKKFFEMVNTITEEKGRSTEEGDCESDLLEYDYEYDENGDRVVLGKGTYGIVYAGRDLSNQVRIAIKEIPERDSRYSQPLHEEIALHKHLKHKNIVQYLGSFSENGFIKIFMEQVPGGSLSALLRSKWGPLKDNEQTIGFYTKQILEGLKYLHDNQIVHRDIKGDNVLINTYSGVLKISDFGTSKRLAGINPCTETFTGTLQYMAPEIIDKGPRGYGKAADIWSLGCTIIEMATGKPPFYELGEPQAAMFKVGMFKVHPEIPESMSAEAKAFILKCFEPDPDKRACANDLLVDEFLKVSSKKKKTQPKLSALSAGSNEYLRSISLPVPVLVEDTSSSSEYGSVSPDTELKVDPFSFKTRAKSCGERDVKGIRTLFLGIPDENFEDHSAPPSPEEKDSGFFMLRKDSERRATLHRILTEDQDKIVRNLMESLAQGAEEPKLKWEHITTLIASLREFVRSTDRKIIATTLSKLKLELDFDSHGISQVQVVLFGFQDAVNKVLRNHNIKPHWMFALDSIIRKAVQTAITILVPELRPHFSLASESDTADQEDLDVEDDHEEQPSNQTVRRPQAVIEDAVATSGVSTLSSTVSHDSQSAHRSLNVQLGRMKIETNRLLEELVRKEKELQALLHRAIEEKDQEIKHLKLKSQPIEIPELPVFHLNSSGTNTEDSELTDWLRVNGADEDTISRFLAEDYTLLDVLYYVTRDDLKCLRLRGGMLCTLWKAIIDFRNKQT
The experiment in a line: biochemical. To be noted: read-out: % enzyme activity, 1 μM; Run 1, Run 2.

The target of a further experiment is ERN2/IRE2 (Homo sapiens, UniProt Q76MJ5). To be noted: 1 μM; Run 1, Run 2.
Sequence of ERN2/IRE2 (Q76MJ5 35-926): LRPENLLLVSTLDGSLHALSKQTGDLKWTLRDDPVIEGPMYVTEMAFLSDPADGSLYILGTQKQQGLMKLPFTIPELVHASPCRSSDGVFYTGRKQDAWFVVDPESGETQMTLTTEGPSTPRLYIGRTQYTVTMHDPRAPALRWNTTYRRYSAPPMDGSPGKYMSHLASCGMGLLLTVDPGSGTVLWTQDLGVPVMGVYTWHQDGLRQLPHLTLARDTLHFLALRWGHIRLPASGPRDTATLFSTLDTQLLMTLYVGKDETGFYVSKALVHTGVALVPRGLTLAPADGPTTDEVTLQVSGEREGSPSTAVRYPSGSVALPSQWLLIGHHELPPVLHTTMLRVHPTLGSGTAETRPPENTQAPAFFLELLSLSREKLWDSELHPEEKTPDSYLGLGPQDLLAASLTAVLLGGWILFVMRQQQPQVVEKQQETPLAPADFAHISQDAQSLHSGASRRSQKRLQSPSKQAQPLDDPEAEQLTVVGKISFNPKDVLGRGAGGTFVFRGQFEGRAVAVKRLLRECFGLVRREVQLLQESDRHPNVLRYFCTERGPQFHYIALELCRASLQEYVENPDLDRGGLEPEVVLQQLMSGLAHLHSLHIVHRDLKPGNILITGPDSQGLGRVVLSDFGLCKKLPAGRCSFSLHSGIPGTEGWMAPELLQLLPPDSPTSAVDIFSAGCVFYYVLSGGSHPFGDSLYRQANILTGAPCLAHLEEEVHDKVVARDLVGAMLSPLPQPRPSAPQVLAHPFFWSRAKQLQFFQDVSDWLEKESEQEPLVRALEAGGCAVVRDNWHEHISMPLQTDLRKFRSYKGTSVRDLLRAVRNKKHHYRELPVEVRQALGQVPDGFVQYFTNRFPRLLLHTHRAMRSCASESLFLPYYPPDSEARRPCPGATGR
The target of another experiment is T3, MEKK3 (Homo sapiens, UniProt Q99759).
T3 sequence (Q99759 1-626): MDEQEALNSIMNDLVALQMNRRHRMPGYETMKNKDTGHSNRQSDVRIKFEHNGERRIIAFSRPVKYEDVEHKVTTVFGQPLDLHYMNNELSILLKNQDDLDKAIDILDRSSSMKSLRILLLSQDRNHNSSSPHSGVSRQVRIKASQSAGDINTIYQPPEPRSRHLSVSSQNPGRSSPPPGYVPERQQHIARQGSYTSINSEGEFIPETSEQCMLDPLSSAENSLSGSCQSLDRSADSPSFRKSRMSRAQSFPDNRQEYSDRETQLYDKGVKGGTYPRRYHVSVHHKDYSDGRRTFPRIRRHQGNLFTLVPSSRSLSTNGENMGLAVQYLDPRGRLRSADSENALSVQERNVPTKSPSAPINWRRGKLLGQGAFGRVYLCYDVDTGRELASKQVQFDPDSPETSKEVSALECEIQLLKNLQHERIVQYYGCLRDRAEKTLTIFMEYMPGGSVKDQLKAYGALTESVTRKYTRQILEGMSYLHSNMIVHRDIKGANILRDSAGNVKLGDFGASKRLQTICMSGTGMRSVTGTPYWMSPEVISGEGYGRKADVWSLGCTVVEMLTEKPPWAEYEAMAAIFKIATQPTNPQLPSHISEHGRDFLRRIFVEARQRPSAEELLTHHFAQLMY
To be noted: 1 μM; Run 1, Run 2.

Sequence of PKCb2 (P05771 1-673 isoform P05771-2): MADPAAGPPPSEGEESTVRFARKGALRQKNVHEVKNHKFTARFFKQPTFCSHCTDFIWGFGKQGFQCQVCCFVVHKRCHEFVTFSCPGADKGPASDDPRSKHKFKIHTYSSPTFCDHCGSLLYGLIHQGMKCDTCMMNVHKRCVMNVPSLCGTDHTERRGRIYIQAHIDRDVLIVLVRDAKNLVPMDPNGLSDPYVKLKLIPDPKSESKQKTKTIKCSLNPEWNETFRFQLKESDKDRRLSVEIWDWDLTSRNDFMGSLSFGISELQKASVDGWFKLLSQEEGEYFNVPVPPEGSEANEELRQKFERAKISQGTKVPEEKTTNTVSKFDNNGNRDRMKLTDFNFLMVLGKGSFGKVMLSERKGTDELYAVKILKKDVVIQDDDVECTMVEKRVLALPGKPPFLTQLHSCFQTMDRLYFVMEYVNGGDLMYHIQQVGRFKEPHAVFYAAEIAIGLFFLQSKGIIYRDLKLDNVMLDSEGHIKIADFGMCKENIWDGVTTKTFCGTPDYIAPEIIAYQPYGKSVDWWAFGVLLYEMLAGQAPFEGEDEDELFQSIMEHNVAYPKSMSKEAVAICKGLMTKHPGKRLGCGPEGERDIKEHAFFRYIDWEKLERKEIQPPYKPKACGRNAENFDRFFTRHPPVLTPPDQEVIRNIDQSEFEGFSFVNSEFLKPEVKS

As to `COc1cc(-c2cncc(-c3ccc(N4C[C@@H](C)N(C)[C@@H](C)C4)cc3)c2C)cc(F)c1C(N)=O` [Compound 26c, 2-Fluoro-6-methoxy-4-(4-methyl-5-(4-((3R,5S)-3,4,5-trimethylpiperazin-1-yl)phenyl)pyridin-3-yl)benzamide], the remaining activity at 1 µM on Aurora C was 100%; at PKCb2 it was 99.1%; at ASK1/MAP3K5, 97.8%. Moreover, the “% enzyme activity” value was 85.73% on PYK2, 95.56% on PEAK1, 96.29% at ERN2/IRE2 and 100.00% at MEKK3. On CYP2B6, this compound gave a CYP inhibition greater than 50 µM.

Turning to `COc1cc(-c2cncc(-c3ccc(N4CCN(C)CC4)cc3)c2C)cc(F)c1C(N)=O` [Compound 26a, 2-Fluoro-6-methoxy-4-(4-methyl-5-(4-(4-methylpiperazin-1-yl)phenyl)pyridin-3-yl)benzamide], the remaining activity at 1 µM on Aurora C came to 105%; on PKCb2 it was 107%; on ASK1/MAP3K5, 95.5%. Also, the “% enzyme activity” value turned out to be 85.65% on PYK2, 97.59% at PEAK1, 97.32% on ERN2/IRE2 and 93.57% at MEKK3. The compound further showed a CYP inhibition on CYP2B6 greater than 50 µM.
